{"source": "ChEMBL document CHEMBL1201862", "about": "“PubChem BioAssay data set” (2004)", "target": "Envelope glycoprotein gp160 (Human immunodeficiency virus 1, UniProt Q6QLK5)", "sequence (Q6QLK5 whole entry, the tested form may be a part)": "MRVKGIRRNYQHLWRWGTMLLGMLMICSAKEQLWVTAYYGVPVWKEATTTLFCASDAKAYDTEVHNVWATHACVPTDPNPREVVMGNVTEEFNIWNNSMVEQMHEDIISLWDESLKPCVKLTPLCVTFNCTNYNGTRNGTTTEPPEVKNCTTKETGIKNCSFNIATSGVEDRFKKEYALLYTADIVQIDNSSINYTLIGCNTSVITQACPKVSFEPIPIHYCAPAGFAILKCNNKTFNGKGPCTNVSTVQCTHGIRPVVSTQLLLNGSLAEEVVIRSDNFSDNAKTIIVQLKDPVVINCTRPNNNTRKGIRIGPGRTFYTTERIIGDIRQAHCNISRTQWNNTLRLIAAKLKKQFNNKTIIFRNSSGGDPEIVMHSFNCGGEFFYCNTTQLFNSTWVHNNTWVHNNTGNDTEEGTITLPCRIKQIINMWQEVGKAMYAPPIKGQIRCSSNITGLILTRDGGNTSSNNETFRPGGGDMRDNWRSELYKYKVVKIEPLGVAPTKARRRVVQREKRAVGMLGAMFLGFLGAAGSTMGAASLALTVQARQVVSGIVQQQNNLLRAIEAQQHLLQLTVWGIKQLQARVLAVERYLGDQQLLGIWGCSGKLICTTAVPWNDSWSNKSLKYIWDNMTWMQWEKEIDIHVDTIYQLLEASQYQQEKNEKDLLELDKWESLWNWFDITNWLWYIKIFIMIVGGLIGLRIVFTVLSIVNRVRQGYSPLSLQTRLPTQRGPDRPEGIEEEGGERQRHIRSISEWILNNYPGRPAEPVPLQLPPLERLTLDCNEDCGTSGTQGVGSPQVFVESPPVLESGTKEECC", "assay": "inhibitors of HIV fusion peptide binding, primary screen, biochemical, uHTS, fluorescence dequenching (AID 1986)", "note": "The source made the active and inactive calls. Cut-off read from the data, not from the text of the source: actives have a measured IC50 and inactives only a lower limit."}
{"compound": "COc1ccc(C(=O)Nc2ccccc2C(=O)O)cc1NC(=O)C(c1ccccc1)c1ccccc1", "values": [{"measurement": "IC50", "result": "14.1 µM (active)"}]}
{"compound": "CCOC(=O)c1c(N2C(=O)Nc3cc(Cl)c(Cl)cc3N2O)sc2c1CCCCC2", "values": [{"measurement": "IC50", "result": "22.3 µM (active)"}]}
